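Each compound was tested at five concentrations against cells in 96-well plates for 48 hours. GI50 marks 50% less growth. TGI: total growth inhibition.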
How the values were obtained:
Experiment in all cases: NCI anticancer screen, dose series, 48 h
MCF7 breast = system: MCF7 breast
SN12C renal = system: SN12C renal
NCI/ADR-RES ovarian = system: NCI/ADR-RES ovarian
HOP-62 NSCLC = system: HOP-62 NSCLC
NCI-H23 lung = system: NCI-H23 lung
SNB-19 CNS = system: SNB-19 CNS
MDA-MB-435 = system: MDA-MB-435
RXF 393 renal = system: RXF 393 renal
TK-10 renal = system: TK-10 renal
RPMI-8226 leukemia = system: RPMI-8226 leukemia
NCI-H522 lung = system: NCI-H522 lung
OVCAR-4 ovarian = system: OVCAR-4 ovarian
MDA-MB-231 breast = system: MDA-MB-231 breast
K-562 leukemia = system: K-562 leukemia
ACHN renal = system: ACHN renal
UO-31 renal = system: UO-31 renal
786-0 renal = system: 786-0 renal
HCC-2998 colon = system: HCC-2998 colon
SNB-75 CNS = system: SNB-75 CNS
SK-MEL-28 melanoma = system: SK-MEL-28 melanoma
SF-268 CNS = system: SF-268 CNS
UACC-257 melanoma = system: UACC-257 melanoma
KM12 colon = system: KM12 colon
MALME-3M melanoma = system: MALME-3M melanoma
T-47D breast = system: T-47D breast
HL-60(TB) leukemia = system: HL-60(TB) leukemia
MDA-MB-468 breast = system: MDA-MB-468 breast
LOX IMVI melanoma = system: LOX IMVI melanoma
HOP-92 NSCLC = system: HOP-92 NSCLC
A498 renal = system: A498 renal
SK-MEL-5 melanoma = system: SK-MEL-5 melanoma
IGROV1 ovarian = system: IGROV1 ovarian
SF-295 CNS = system: SF-295 CNS
OVCAR-8 ovarian = system: OVCAR-8 ovarian
NCI-H460 lung = system: NCI-H460 lung
HCT-15 colon = system: HCT-15 colon
SK-MEL-2 melanoma = system: SK-MEL-2 melanoma
M14 melanoma = system: M14 melanoma
U251 CNS = system: U251 CNS
CCRF-CEM leukemia = system: CCRF-CEM leukemia
CAKI-1 renal = system: CAKI-1 renal
OVCAR-3 ovarian = system: OVCAR-3 ovarian
HCT-116 colon = system: HCT-116 colon
DU-145 prostate = system: DU-145 prostate
OVCAR-5 ovarian = system: OVCAR-5 ovarian
SF-539 CNS = system: SF-539 CNS
PC-3 prostate = system: PC-3 prostate
SR leukemia = system: SR leukemia
NCI-H226 lung = system: NCI-H226 lung
SK-OV-3 ovarian = system: SK-OV-3 ovarian
BT-549 breast = system: BT-549 breast
SW-620 colon = system: SW-620 colon
MOLT-4 leukemia = system: MOLT-4 leukemia
HT29 colon = system: HT29 colon
A549 NSCLC = system: A549 NSCLC
COLO 205 colon = system: COLO 205 colon
UACC-62 melanoma = system: UACC-62 melanoma
EKVX NSCLC = system: EKVX NSCLC
HS 578T breast = system: HS 578T breast

Compound `Nc1nc2cc(-c3ccc4ncnc(NCc5ccccc5)c4c3)ccc2o1` has a GI50 (MCF7 breast) of 2.47 µM, a TGI (MCF7 breast) of 11.1 µM and a GI50 (SN12C renal) of 5.14 µM. For the same compound, the TGI (SN12C renal) was 18.3 µM, the GI50 (NCI/ADR-RES ovarian) was 11 µM and the TGI (NCI/ADR-RES ovarian) was 49.5 µM. The GI50 (HOP-62 NSCLC) was 10.7 µM, the TGI (HOP-62 NSCLC) was 34.3 µM and the GI50 (NCI-H23 lung) was 10.9 µM. It also gave a TGI (NCI-H23 lung) of 35.6 µM, a GI50 (SNB-19 CNS) of 10.8 µM and a TGI (SNB-19 CNS) of 25.4 µM. The GI50 (MDA-MB-435) was 11 µM, the TGI (MDA-MB-435) was 24.6 µM and the GI50 (RXF 393 renal) was 3.62 µM. It also gave a TGI (RXF 393 renal) of 16.3 µM, a GI50 (TK-10 renal) of 2.98 µM and a TGI (TK-10 renal) of 16.1 µM. The GI50 (RPMI-8226 leukemia) was 3.83 µM, the TGI (RPMI-8226 leukemia) was 22.3 µM and the GI50 (NCI-H522 lung) was 8.72 µM. For the same compound, the TGI (NCI-H522 lung) was 38.4 µM, the GI50 (OVCAR-4 ovarian) was 7 µM and the TGI (OVCAR-4 ovarian) was 28.1 µM. For the same compound, the GI50 (MDA-MB-231 breast) was 7.96 µM, the TGI (MDA-MB-231 breast) was 21.4 µM and the GI50 (K-562 leukemia) was 11.2 µM. The TGI (K-562 leukemia) was 23.2 µM, the GI50 (ACHN renal) was 5.27 µM and the TGI (ACHN renal) was 18.2 µM. For the same compound, the GI50 (UO-31 renal) was 4.01 µM, the TGI (UO-31 renal) was 18.3 µM and the GI50 (786-0 renal) was 13 µM. The TGI (786-0 renal) was 26.3 µM, the GI50 (HCC-2998 colon) was 9.11 µM and the TGI (HCC-2998 colon) was 23 µM. For the same compound, the GI50 (SNB-75 CNS) was 2.15 µM, the TGI (SNB-75 CNS) was 5.24 µM and the GI50 (SK-MEL-28 melanoma) was 12.4 µM. The TGI (SK-MEL-28 melanoma) was 24.8 µM, the GI50 (SF-268 CNS) was 10.9 µM and the TGI (SF-268 CNS) was 43.4 µM. For the same compound, the GI50 (UACC-257 melanoma) was 14.4 µM, the TGI (UACC-257 melanoma) was 32.2 µM and the GI50 (KM12 colon) was 6.77 µM. It also gave a TGI (KM12 colon) of 25.6 µM, a GI50 (MALME-3M melanoma) of 3.2 µM and a TGI (MALME-3M melanoma) of 13.3 µM. It also gave a GI50 (T-47D breast) of 10.4 µM, a TGI (T-47D breast) of 35.3 µM and a GI50 (HL-60(TB) leukemia) of 10.4 µM. It also gave a TGI (HL-60(TB) leukemia) of 24 µM, a GI50 (MDA-MB-468 breast) of 1.81 µM and a TGI (MDA-MB-468 breast) of 7.67 µM. For the same compound, the GI50 (LOX IMVI melanoma) was 3.07 µM, the TGI (LOX IMVI melanoma) was 15.9 µM and the GI50 (HOP-92 NSCLC) was 2.11 µM. The TGI (HOP-92 NSCLC) was 7.5 µM, the GI50 (A498 renal) was 3.55 µM and the TGI (A498 renal) was 18.1 µM. It also gave a GI50 (SK-MEL-5 melanoma) of 12.2 µM, a TGI (SK-MEL-5 melanoma) of 28.1 µM and a GI50 (IGROV1 ovarian) of 1.98 µM. The TGI (IGROV1 ovarian) was 5.5 µM, the GI50 (SF-295 CNS) was 14.1 µM and the TGI (SF-295 CNS) was 35 µM. The GI50 (OVCAR-8 ovarian) was 3.41 µM, the TGI (OVCAR-8 ovarian) was 17.7 µM and the GI50 (NCI-H460 lung) was 6.48 µM. The TGI (NCI-H460 lung) was 27.7 µM, the GI50 (HCT-15 colon) was 6.45 µM and the TGI (HCT-15 colon) was 27.3 µM. It also gave a GI50 (SK-MEL-2 melanoma) of 14.7 µM, a TGI (SK-MEL-2 melanoma) of 30.6 µM and a GI50 (M14 melanoma) of 12.4 µM. For the same compound, the TGI (M14 melanoma) was 35.6 µM, the GI50 (U251 CNS) was 10.4 µM and the TGI (U251 CNS) was 32.6 µM. For the same compound, the GI50 (CCRF-CEM leukemia) was 6.08 µM, the TGI (CCRF-CEM leukemia) was 30.2 µM and the GI50 (CAKI-1 renal) was 7.7 µM. The TGI (CAKI-1 renal) was 21 µM, the GI50 (OVCAR-3 ovarian) was 3.49 µM and the TGI (OVCAR-3 ovarian) was 21.6 µM. It also gave a GI50 (HCT-116 colon) of 3.89 µM, a TGI (HCT-116 colon) of 17.5 µM and a GI50 (DU-145 prostate) of 4.7 µM. The TGI (DU-145 prostate) was 20.5 µM, the GI50 (OVCAR-5 ovarian) was 4.03 µM and the TGI (OVCAR-5 ovarian) was 16.9 µM. For the same compound, the GI50 (SF-539 CNS) was 4.08 µM, the TGI (SF-539 CNS) was 14.9 µM and the GI50 (PC-3 prostate) was 12.7 µM. The TGI (PC-3 prostate) was 31.9 µM, the GI50 (SR leukemia) was 10.3 µM and the TGI (SR leukemia) was 27.6 µM. It also gave a GI50 (NCI-H226 lung) of 10.1 µM, a TGI (NCI-H226 lung) of 39.4 µM and a GI50 (SK-OV-3 ovarian) of 3.26 µM. For the same compound, the TGI (SK-OV-3 ovarian) was 12.1 µM, the GI50 (BT-549 breast) was 4.31 µM and the TGI (BT-549 breast) was 16.7 µM. For the same compound, the GI50 (SW-620 colon) was 9.63 µM, the TGI (SW-620 colon) was 31.1 µM and the GI50 (MOLT-4 leukemia) was 4.43 µM. The TGI (MOLT-4 leukemia) was 19 µM, the GI50 (HT29 colon) was 7.45 µM and the TGI (HT29 colon) was 58.3 µM. The GI50 (A549 NSCLC) was 4.16 µM, the TGI (A549 NSCLC) was 29.4 µM and the GI50 (COLO 205 colon) was 14.4 µM. It also gave a TGI (COLO 205 colon) of 30 µM, a GI50 (UACC-62 melanoma) of 14.7 µM and a TGI (UACC-62 melanoma) of 29.6 µM. The GI50 (EKVX NSCLC) was 3.47 µM, the TGI (EKVX NSCLC) was 20.2 µM and the GI50 (HS 578T breast) was 2.41 µM. It also gave a TGI (HS 578T breast) of 7.52 µM.
